Experimental data from patent US20260097037A1, “FUSED RING COMPOUND HAVING GLP-1 RECEPTOR AGONIST EFFECT” (Shionogi & Co., Ltd., priority 2022, published 2026).
Where two headings read alike, the source gives them in different places.

Molecular target: T1, Human GLP-1 receptor stably expressing cells (hGLP-1R/CHO-K1 cells) (Homo sapiens, UniProt P43220)
T1 construct: expressed in transfected cells
Test: Measurement of GLP-1 receptor agonist activity (cAMP assay)
Type: cell-based
Details: for Emax: cAMP with 2 nM human GLP-1 (7-36) = 100%, DMSO only = 0%; for EC50: increase in cAMP concentration in hGLP-1R/CHO-K1 cells, 37° C. 1 hour
Procedure, shortened: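 hGLP-1R/CHO-K1 cells (cryopreserved) incubated with compound and forskolin in HBSS with 0.1% BSA, IBMX and RO20-1724, 1 h at 37° C; cAMP read by HTRF. EC50 and Emax from cAMP rise, normalised to 2 nM human GLP-1 (7-36) (100%) and DMSO (0%).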

[1] = CHO-K1, maximum effect, read-out: Emax

T1 sequence (P43220 24-463): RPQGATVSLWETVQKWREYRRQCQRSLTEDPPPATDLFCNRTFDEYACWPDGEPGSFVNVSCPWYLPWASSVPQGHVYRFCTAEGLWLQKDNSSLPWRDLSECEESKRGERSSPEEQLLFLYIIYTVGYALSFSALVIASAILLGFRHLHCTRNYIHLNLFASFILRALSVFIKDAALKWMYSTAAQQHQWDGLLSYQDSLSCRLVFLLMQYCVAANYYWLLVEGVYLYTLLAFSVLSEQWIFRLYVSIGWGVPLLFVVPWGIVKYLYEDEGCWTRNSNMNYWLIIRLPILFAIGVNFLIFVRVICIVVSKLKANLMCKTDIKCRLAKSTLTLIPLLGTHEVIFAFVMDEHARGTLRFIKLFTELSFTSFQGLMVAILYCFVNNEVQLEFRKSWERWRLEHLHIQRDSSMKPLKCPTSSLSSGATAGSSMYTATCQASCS

Row | SMILES | Emax [1] | EC50 | Emax (maximum effect)
1 | Cc1nonc1COc1nc2c(cc1C(F)(F)F)CCN(Cc1nc3ccc(C(=O)O)cc3n1C[C@@H]1CCO1)[C@H]2C [Compound I-161] | 73% | 28200 pM | –
2 | C[C@H]1c2nc(OCc3ccc(Cl)cc3Cl)c(C(F)F)cc2CCN1Cc1nc2ccc(C(=O)O)c(F)c2n1C[C@@H]1CCO1 [Compound I-122] | 112% | 73 pM | –
3 | C[C@H]1c2nc(OCc3ccc(F)cc3)c(C(F)F)cc2CCN1Cc1nc2ccc(C(=O)O)c(F)c2n1C[C@@H]1CCO1 [Compound I-117] | 118% | 372 pM | –
4 | COc1cc(Cl)ccc1COc1nc2c(cc1C(F)F)CCN(Cc1nc3ccc(C(=O)O)cc3n1C[C@@H]1CCO1)[C@H]2C [Compound I-054] | 121% | 96.3 pM | –
5 | Cc1ccc(COc2nc3c(cc2Cl)CCN(Cc2nc4ccc(C(=O)O)cc4n2C[C@@H]2CCO2)[C@H]3C)cc1 [Compound I-028] | – | 748 pM | 110%
6 | C[C@H]1c2nc(NCc3ccc(C#N)cc3F)c(C(F)(F)F)cc2CCN1Cc1nc2c(F)cc(C(=O)O)cc2n1C[C@@H]1CCO1 [Compound I-193] | 110% | 211 pM | –
7 | C[C@H]1c2nc(OCc3ccc(Cl)c4ccoc34)c(C(F)(F)F)cc2CCN1Cc1nc2ccc(C(=O)O)cc2n1C[C@@H]1CCO1 [Compound I-014] | 128% | 171 pM | –
8 | C[C@H]1c2nc(OCc3ccc(C#N)cc3F)c(Cl)cc2CCN1Cc1nc2ccc(C(=O)O)c(F)c2n1C[C@@H]1CCO1 [Compound I-041] | 145% | 63.7 pM | –
9 | C[C@H]1c2nc(OCc3ccc(Cl)cc3)c(C(F)F)cc2CCN1Cc1nc2ccc(C(=O)O)c(F)c2n1C[C@@H]1CCO1 [Compound I-118] | 113% | 105 pM | –
10 | Cc1ccc(COc2cc3c(cc2C(F)F)CCN(Cc2nc4ccc(C(=O)O)cc4n2C[C@@H]2CCO2)[C@H]3C)cc1 [Compound I-005] | 111% | 3390 pM | –
11 | COc1cc(C(=O)O)cc2c1nc(CN1CCc3cc(C(F)(F)F)c4c(c3[C@@H]1C)O[C@@](C)(c1ccc(Cl)cc1F)O4)n2C[C@@H]1CCO1 [Compound I-170] | 105% | 243 pM | –
12 | C[C@H]1c2nc(OCc3ccc(F)cc3)c(Cl)cc2CCN1Cc1nc2ccc(C(=O)O)cc2n1C[C@@H]1CCO1 [Compound I-023] | 130% | 443 pM | –
13 | C[C@H]1c2nc(OCc3c(F)cc(Cl)cc3F)c(C(F)F)cc2CCN1Cc1nc2c(F)cc(C(=O)O)cc2n1C[C@@H]1CCO1 [Compound I-113] | 116% | 33.1 pM | –
14 | C[C@H]1c2nc(OCc3ccc(Cl)cc3F)c(C(F)(F)F)nc2CCN1Cc1nc2ccc(C(=O)O)cc2n1C[C@@H]1CCO1 [Compound I-174] | 96.3% | 174 pM | –
15 | C[C@H]1c2nc(OCc3ccc(C#N)c4occc34)c(C(F)(F)F)cc2CCN1Cc1nc2ccc(C(=O)O)cc2n1C[C@@H]1CCO1 [Compound I-165] | 111% | 965 pM | –
16 | C[C@H]1c2nc(NCc3ccc(Cl)cc3F)c(C(F)(F)F)cc2CCN1Cc1nc2c(Cl)cc(C(=O)O)cc2n1C[C@@H]1CCO1 [Compound I-151] | 92.7% | 73.8 pM | –
17 | C[C@H]1c2nc(OCc3c(F)cc(F)cc3F)c(Cl)cc2CCN1Cc1nc2ccc(C(=O)O)cc2n1C[C@@H]1CCO1 [Compound I-025] | 113% | 307 pM | –
18 | Cc1cc2c(nc1OCc1ccc(Cl)cc1F)[C@H](C)N(Cc1nc3ccc(C(=O)O)cc3n1C[C@@H]1CCO1)CC2 [Compound I-002] | 109% | 168 pM | –
19 | Cc1ccc(COc2nc3c(cc2Cl)CCN(Cc2nc4ccc(C(=O)O)cc4n2C[C@@H]2CCO2)[C@H]3C)cc1 [Compound I-018] | – | 348 pM | 133%
20 | Cc1ccc(COc2nc3c(cc2C(F)F)CCN(Cc2nc4ccc(C(=O)O)nc4n2C[C@@H]2CCO2)[C@H]3C)cc1 [Compound I-098] | 118% | 1160 pM | –
21 | COc1cc(C(=O)O)cc2c1nc(CN1CCc3cc(Cl)c(OCc4ccc(Cl)cn4)nc3[C@@H]1C)n2C[C@@H]1CCO1 [Compound I-065] | 104% | 80.9 pM | –

Continued by falling EC50, values first:

Row | Emax [1] | EC50 | Emax (maximum effect) | SMILES
22 | 83.3% | 32300 pM | – | C[C@H]1c2nc(OCc3nc4ccccn4n3)c(C(F)(F)F)cc2CCN1Cc1nc2ccc(C(=O)O)cc2n1C[C@@H]1CCO1 [Compound I-163]
23 | 88% | 7910 pM | – | C[C@H]1c2cc(OCc3ccccc3Cl)c(C(F)F)cc2CCN1Cc1nc2ccc(C(=O)O)cc2n1C[C@@H]1CCO1 [Compound I-007]
24 | 114% | 4210 pM | – | C[C@H]1c2cc(OCc3c(F)cc(F)cc3F)c(C(F)F)cc2CCN1Cc1nc2ccc(C(=O)O)cc2n1C[C@@H]1CCO1 [Compound I-013]
25 | 117% | 1990 pM | – | C[C@H]1c2cc(OCc3cc(F)c(Cl)cc3F)c(C(F)F)cc2CCN1Cc1nc2ccc(C(=O)O)cc2n1C[C@@H]1CCO1 [Compound I-010]
26 | 108% | 1580 pM | – | C[C@H]1c2c(cc(Cl)c3c2OC(C)(c2ccc(Cl)cn2)O3)CCN1Cc1nc2ccc(C(=O)O)cc2n1C[C@@H]1CCO1 (stereo partly shown) [Compound I-092]
27 | 96.3% | 1460 pM | – | Cc1cc(-c2cc(C(=O)O)cc3c2nc(CN2CCc4cc(C(F)(F)F)c(OCc5ccc(Cl)cc5F)nc4[C@@H]2C)n3C[C@@H]2CCO2)on1 [Compound I-179]
28 | 108% | 1250 pM | – | C[C@H]1c2cc(OCc3c(F)cc(Cl)cc3F)c(C(F)F)cc2CCN1Cc1nc2ccc(C(=O)O)cc2n1C[C@@H]1CCO1 [Compound I-012]
29 | 122% | 969 pM | – | C[C@H]1c2cc(OCc3ccc(Cl)cc3Cl)c(C(F)F)cc2CCN1Cc1nc2ccc(C(=O)O)cc2n1C[C@@H]1CCO1 [Compound I-009]
30 | 92.7% | 924 pM | – | C[C@H]1c2nc(OCc3ccc(Cl)cn3)c(C(F)F)cc2CCN1Cc1nc2ccc(C(=O)O)cc2n1C[C@@H]1CCO1 [Compound I-058]
31 | 97% | 902 pM | – | C[C@H]1c2nc(OCc3ccccc3Cl)c(C(F)F)cc2CCN1Cc1nc2ccc(C(=O)O)cc2n1C[C@@H]1CCO1 [Compound I-055]
32 | 110% | 314 pM | – | C[C@H]1c2nc(OCc3ncc(Cl)cc3F)c(C(F)(F)F)cc2CCN1Cc1nc2ccc(C(=O)O)cc2n1C[C@@H]1CCO1 [Compound I-105]
33 | 112% | 307 pM | – | C[C@H]1c2nc(OCc3ccc(Cl)cc3F)c(C(F)(F)F)cc2CCN1Cc1nc2sc(C(=O)O)cc2n1C[C@@H]1CCO1 [Compound I-049]
34 | 124% | 222 pM | – | C[C@H]1c2nc(OCc3ccc(Cl)cc3)c(C#N)cc2CCN1Cc1nc2c(Cl)cc(C(=O)O)cc2n1C[C@@H]1CCO1 [Compound I-189]
35 | 99.3% | 215 pM | – | C[C@H]1c2nc(OCc3cc(F)c(Cl)cc3F)c(C(F)F)cc2CCN1Cc1nc2ccc(C(=O)O)cc2n1C[C@@H]1CCO1 [Compound I-062]
36 | 109% | 205 pM | – | C[C@H]1c2nc(NCc3ccc(Cl)cc3Cl)c(C(F)(F)F)cc2CCN1Cc1nc2c(F)cc(C(=O)O)cc2n1C[C@@H]1CCO1 [Compound I-166]
37 | 124% | 176 pM | – | C[C@H]1c2nc(OCc3ccc(F)cc3F)c(Cl)cc2CCN1Cc1nc2ccc(C(=O)O)cc2n1C[C@@H]1CCO1 [Compound I-019]
38 | 128% | 162 pM | – | COc1cc(C(=O)O)cc2c1nc(CN1CCc3cc(C#N)c(OCc4ccc(Cl)cn4)nc3[C@@H]1C)n2C[C@@H]1CCO1 [Compound I-147]
39 | 135% | 151 pM | – | C[C@H]1c2nc(OCc3c(F)cc(F)cc3F)c(C#N)cc2CCN1Cc1nc2c(Cl)cc(C(=O)O)cc2n1C[C@@H]1CCO1 [Compound I-183]
40 | 105% | 147 pM | – | C[C@H]1c2nc(OCc3c(F)cc(Cl)cc3F)c(C(F)F)cc2CCN1Cc1nc2ccc(C(=O)O)cc2n1C[C@@H]1CCO1 [Compound I-060]
41 | 105% | 99.2 pM | – | C[C@H]1c2nc(NCc3ccc(Cl)cc3F)c(C(F)(F)F)cc2CCN1Cc1nc2c(F)cc(C(=O)O)cc2n1C[C@@H]1CCO1 [Compound I-152]
42 | 99.7% | 88.9 pM | – | C[C@H]1c2nc(NCc3c(F)cc(Cl)cc3F)c(C(F)(F)F)cc2CCN1Cc1nc2c(F)cc(C(=O)O)cc2n1C[C@@H]1CCO1 [Compound I-173]
43 | 98.3% | 60.5 pM | – | COc1cc(C(=O)O)cc2c1nc(CN1CCc3cc(Cl)c(OCc4ccc(C)cc4)nc3[C@@H]1C)n2C[C@@H]1CCO1 [Compound I-067]
44 | 94.7% | 58.7 pM | – | C[C@H]1c2nc(OCc3ccc(Cl)cc3Cl)c(Cl)cc2CCN1Cc1nc2c(F)cc(C(=O)O)cc2n1C[C@@H]1CCO1 [Compound I-084]
45 | 109% | 42.2 pM | – | COc1cc(C(=O)O)cc2c1nc(CN1CCc3cc(Cl)c(OCc4ccc(F)cc4F)nc3[C@@H]1C)n2C[C@@H]1CCO1 [Compound I-069]
46 | 137% | 40 pM | – | COc1cc(Cl)ccc1COc1nc2c(cc1C#N)CCN(Cc1nc3c(Cl)cc(C(=O)O)cc3n1C[C@@H]1CCO1)[C@H]2C [Compound I-187]
47 | 123% | 29.9 pM | – | COc1cc(C(=O)O)cc2c1nc(CN1CCc3cc(C(F)F)c(OCc4ccc(F)cc4F)nc3[C@@H]1C)n2C[C@@H]1CCO1 [Compound I-131]
48 | 113% | 19.5 pM | – | COc1cc(C(=O)O)cc2c1nc(CN1CCc3cc(C(F)(F)F)c(NCc4cc(F)c(Cl)cc4F)nc3[C@@H]1C)n2C[C@@H]1CCO1 [Compound I-177]
49 | 105% | 18.7 pM | – | COc1cc(C(=O)O)cc2c1nc(CN1CCc3cc(Cl)c(OCc4ccc(Cl)cc4Cl)nc3[C@@H]1C)n2C[C@@H]1CCO1 [Compound I-070]
50 | 134% | 16.5 pM | – | COc1cc(C(=O)O)cc2c1nc(CN1CCc3cc(C(F)F)c(OCc4ccc(C#N)cc4F)nc3[C@@H]1C)n2C[C@@H]1CCO1 [Compound I-135]
